The assay deals with AMPAR. Nature of the assay: AMPAR EPSCs in DCN cartwheel cells in brain slices, ZX1 potentiation. Format: cell-based, mice. Particulars: slices treated with peptide 3 μM; ZX1 100 μM; −70 mV. How it is done:
Male and female mice (postpartum days 18-28) were anesthetized with isoflurane and sacrificed. Brains were rapidly dissected and sectioned into 210 μm thick coronal slices containing dorsal cochlear nucleus (DCN) on a vibratome (Leica, VT1000S). Slices were incubated in ACSF containing 130 mM NaCl, 3 mM KCl, 2.4 mM CaCl2, 1.3 mM MgCl2, 20 mM NaHCO3, 3 mM HEPES, and 10 mM glucose, saturated with 95% O2/5% CO2 (vol/vol), pH ˜7.3, ˜300 mOsm at 35° C. for 1 hour before being moved to room temperature. During preparation, ACSF was treated with Chelex 100 resin to remove any contaminating zinc. After applying Chelex to the ACSF, high-purity calcium and magnesium salts were added (99.995% purity). All plastic and glassware were washed with 5% high-purity nitric acid.
For brain slice recordings, whole-cell recordings of NMDAR EPSCs in slice DCN cartwheel cells were obtained with micropipettes (3-6 MΩ) containing 128 mM Cs(CH3O3S), 4 mM MgCl2·6H2O, 4 mM Na2ATP, 10 mM HEPES, 0.3 mM Tris-GTP, 10 mM Tris-phosphocreatine, 1 mM CsEGTA, 1 mM, QX-314, 3 mM sodium ascorbate, pH=˜7.2, 300 mOsm. […] NMDAR EPSCs were recorded in voltage clamp mode, at a holding potential of +40 mV, in the presence of DNQX (20 μM, AMPA and kainate receptor antagonist), SR95531. […] AMPA EPSCs were recorded in voltage clamp mode at a holding potential of −70 mV in the presence of SR9551. […]

Turning to NDSYLRSSL [Peptide N2AZ], the “ZX1 potentiation of AMPAR EPSCs” value was 29.3±6.70%.
The figure for SNLSDSYDR [scN2AZ, reference compound] is 30.3±10.24%.

The record behind these values is patent publication US20230034660A1, “PEPTIDES THAT ENHANCE NMDA RECEPTOR FUNCTION AND USE THEREOF” (University of Pittsburgh - Of the Commonwealth System of …, priority 2019, published 2023).
